Laboratory results as given in the supplement of paper PMC10307832.

How the values were obtained:
Experiment in all cases: relative viability (nuclei count vs DMSO), 5 days (fraction); higher = more cells survive
Alisertib + Olaparib = compound: COc1cc(Nc2ncc3c(n2)-c2ccc(Cl)cc2C(c2c(F)cccc2OC)=NC3)ccc1C(=O)O [Alisertib] + O=C(c1cc(Cc2n[nH]c(=O)c3ccccc23)ccc1F)N1CCN(C(=O)C2CC2)CC1 [Olaparib] (partner 8 µM)
How it was run: (§1)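 Five library-drug doses in √10 steps were combined with a fixed anchor-drug dose, or a single drug was given alone, by pin tool to lung cancer cell lines in 1536-well plates the day after seeding. Nuclei were stained and counted after 5 days. Relative viability is the nuclei count in treated wells over that in vehicle wells, taken as the median of duplicate plates.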

Alisertib + AZD7762 = compound: COc1cc(Nc2ncc3c(n2)-c2ccc(Cl)cc2C(c2c(F)cccc2OC)=NC3)ccc1C(=O)O [Alisertib] + NC(=O)Nc1cc(-c2cccc(F)c2)sc1C(=O)N[C@H]1CCCNC1 [AZD7762] (partner 0.2 µM)
How it was run: as §1

Alisertib + Lapatinib = compound: COc1cc(Nc2ncc3c(n2)-c2ccc(Cl)cc2C(c2c(F)cccc2OC)=NC3)ccc1C(=O)O [Alisertib] + CS(=O)(=O)CCNCc1ccc(-c2ccc3ncnc(Nc4ccc(OCc5cccc(F)c5)c(Cl)c4)c3c2)o1 [Lapatinib] (partner 2 µM)
How it was run: as §1

Alisertib + Decitabine = compound: COc1cc(Nc2ncc3c(n2)-c2ccc(Cl)cc2C(c2c(F)cccc2OC)=NC3)ccc1C(=O)O [Alisertib] + Nc1ncn([C@H]2C[C@H](O)[C@@H](CO)O2)c(=O)n1 [Decitabine] (partner 2 µM)
How it was run: as §1

| Cell Line | relative viability (Alisertib + Olaparib; first compound 0.005 µM) | relative viability (Alisertib + Olaparib; first compound 0.01581 µM) | relative viability (Alisertib + Olaparib; first compound 0.05 µM) | relative viability (Alisertib + Olaparib; first compound 0.1581 µM) | relative viability (Alisertib + Olaparib; first compound 0.5 µM) | relative viability (Alisertib + AZD7762; first compound 0.005 µM) | relative viability (Alisertib + AZD7762; first compound 0.01581 µM) | relative viability (Alisertib + AZD7762; first compound 0.05 µM) | relative viability (Alisertib + AZD7762; first compound 0.1581 µM) | relative viability (Alisertib + AZD7762; first compound 0.5 µM) | relative viability (Alisertib + Lapatinib; first compound 0.005 µM) | relative viability (Alisertib + Lapatinib; first compound 0.01581 µM) | relative viability (Alisertib + Lapatinib; first compound 0.05 µM) | relative viability (Alisertib + Lapatinib; first compound 0.1581 µM) | relative viability (Alisertib + Lapatinib; first compound 0.5 µM) | relative viability (Alisertib + Decitabine; first compound 0.005 µM) | relative viability (Alisertib + Decitabine; first compound 0.01581 µM) | relative viability (Alisertib + Decitabine; first compound 0.05 µM) | relative viability (Alisertib + Decitabine; first compound 0.1581 µM) | relative viability (Alisertib + Decitabine; first compound 0.5 µM) |
| --- | --- | --- | --- | --- | --- | --- | --- | --- | --- | --- | --- | --- | --- | --- | --- | --- | --- | --- | --- | --- |
| 201T | 0.823 | 0.803 | 0.711 | 0.361 | 0.33 | 0.618 | 0.753 | 0.675 | 0.46 | 0.277 | 0.94 | 1.06 | 1.05 | 0.954 | 0.458 | 0.837 | 0.847 | 0.72 | 0.582 | 0.802 |
| A-427 | 0.65 | 0.563 | 0.204 | 0.177 | 0.227 | 0.602 | 0.362 | 0.206 | 0.196 | 0.212 | 0.869 | 0.931 | 0.853 | 0.185 | 0.142 | 0.52 | 0.442 | 0.233 | 0.211 | 0.211 |
| ABC-1 | 0.534 | 0.708 | 0.677 | 0.555 | 0.432 |  | 0.594 | 0.648 | 0.307 | 0.272 | 1.22 | 1.1 | 1.05 | 0.91 | 0.616 | 1.12 | 0.915 | 0.869 | 0.598 | 0.33 |
| BEN | 0.983 | 0.917 | 0.295 | 0.269 | 0.341 | 0.57 | 0.592 | 0.359 | 0.335 | 0.389 | 0.707 | 0.585 | 0.261 | 0.203 | 0.221 | 0.607 | 0.51 | 0.304 | 0.363 | 0.325 |
| CAL-12T | 0.66 | 0.534 | 0.194 | 0.159 | 0.195 | 0.528 | 0.314 | 0.183 | 0.224 | 0.201 | 0.556 | 0.526 | 0.195 | 0.198 | 0.169 |  |  |  |  |  |
| COR-L23 | 0.304 | 0.298 | 0.183 | 0.137 | 0.101 |  |  |  |  |  | 0.929 | 0.759 | 0.47 | 0.165 | 0.124 | 0.422 | 0.419 | 0.307 | 0.146 | 0.118 |
| COR-L 105 | 0.689 | 0.641 | 0.502 | 0.498 | 0.311 |  |  |  |  |  | 0.322 | 0.413 | 0.319 | 0.223 | 0.263 | 0.633 | 0.698 | 0.481 | 0.349 | 0.324 |
| Calu-6 | 0.545 | 0.385 | 0.237 | 0.207 | 0.13 |  |  |  |  |  | 0.925 | 0.541 | 0.382 | 0.204 | 0.216 |  |  |  |  |  |
| ChaGo-K-1 | 0.355 | 0.339 | 0.174 | 0.17 | 0.154 | 0.827 | 0.755 | 0.633 | 0.213 | 0.166 |  |  |  |  |  | 0.518 | 0.423 | 0.222 | 0.197 | 0.19 |
| EKVX | 0.848 | 0.674 | 0.282 | 0.207 | 0.203 | 0.554 | 0.46 | 0.278 | 0.132 | 0.172 | 0.211 | 0.238 | 0.16 | 0.126 | 0.111 | 0.303 | 0.302 | 0.206 | 0.174 | 0.158 |
| EMC-BAC-2 | 0.452 | 0.356 | 0.291 | 0.294 | 0.214 | 0.834 | 0.569 | 0.591 | 0.313 | 0.28 | 0.764 | 0.813 | 0.671 | 0.267 | 0.236 | 0.849 | 0.694 | 0.445 | 0.343 | 0.291 |
| EPLC-272H | 0.671 | 0.471 | 0.293 | 0.0899 | 0.116 | 0.286 | 0.308 | 0.196 | 0.12 | 0.106 | 0.756 | 0.612 | 0.846 | 0.152 | 0.112 | 0.344 | 0.363 | 0.295 | 0.141 | 0.152 |
| H3255 | 0.547 | 0.566 | 0.385 | 0.292 | 0.24 | 0.712 | 0.952 | 0.613 | 0.274 | 0.234 | 0.277 | 0.256 | 0.269 | 0.169 | 0.176 | 0.602 | 0.467 | 0.396 | 0.241 | 0.143 |
| HARA | 0.763 | 0.703 | 0.17 | 0.328 | 0.146 | 0.28 | 0.567 | 0.339 | 0.217 | 0.0911 | 0.616 | 0.631 | 0.848 | 0.129 | 0.0993 | 0.524 | 0.58 | 0.334 | 0.208 | 0.145 |
| HCC-15 | 0.689 | 0.444 | 0.191 | 0.165 | 0.145 | 0.994 | 1.16 | 1.12 | 0.355 | 0.133 | 0.746 | 0.671 | 0.392 | 0.122 | 0.109 | 0.541 | 0.316 | 0.19 | 0.13 | 0.139 |
| HCC-44 | 0.944 | 0.856 | 0.501 | 0.508 | 0.391 | 0.888 | 0.992 | 0.966 | 0.588 | 0.439 | 0.991 | 0.922 | 0.906 | 0.242 | 0.151 | 0.895 | 0.937 | 0.849 | 0.419 | 0.364 |
| HCC-78 | 0.772 | 0.503 | 0.23 | 0.292 | 0.218 | 0.544 | 0.569 | 0.363 | 0.23 | 0.28 | 0.743 | 0.783 | 0.428 | 0.205 | 0.19 | 0.635 | 0.507 | 0.316 | 0.29 | 0.298 |
